Test systems include BT-549 breast; HCT-15 colon; HL-60(TB) leukemia; HS 578T breast; HT29 colon; LOX IMVI melanoma; SR leukemia; SW-620 colon; T-47D breast; UACC-257 melanoma.
Common to all, as to test: DTP human tumour cell line panel, 48 h

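Five concentrations, 48 hours, 96-well plates. GI50 is the concentration that inhibits growth by half. Definition used: TGI = concentration required for complete inhibition of growth.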

In the case of `NC1CCN(c2nc(Nc3cccc(C(F)(F)F)c3)c3c(=O)[nH]ccc3n2)CC1`, the GI50 (in general, the concentration at which growth is held to half of that of the control) is 1590 nM with BT-549 breast; 584 nM in the test on HCT-15 colon; 603 nM in the test with HL-60(TB) leukemia; 1640 nM with HS 578T breast; 1170 nM in the test with HT29 colon; 1330 nM with LOX IMVI melanoma. The GI50 with SR leukemia was 774 nM; in the test on SW-620 colon, 1190 nM; in the test on T-47D breast, 1560 nM; in the test on UACC-257 melanoma, 2060 nM. Further, the TGI (commonly the concentration giving total growth inhibition) in the test with BT-549 breast was determined as 3000 nM; in the test on HCT-15 colon, 2260 nM; in the test with HL-60(TB) leukemia, 2410 nM; in the test with HS 578T breast it was 4260 nM; in the test with HT29 colon it was 4890 nM; with LOX IMVI melanoma it was 2720 nM. The TGI came out at 2820 nM with SR leukemia, 2670 nM with SW-620 colon, 3260 nM in the test with T-47D breast and 3980 nM in the test with UACC-257 melanoma.

As for `CCOC(=O)C(CO)c1nc2c([nH]c1=O)c(=O)n(C)c(=O)n2C` (stereo not drawn), the TGI in the test on BT-549 breast, in the test on HCT-15 colon, with HL-60(TB) leukemia, in the test with HS 578T breast, in the test with HT29 colon and with LOX IMVI melanoma was > 100000 nM throughout. Further, the TGI was > 100000 nM in the test with SR leukemia, > 100000 nM with SW-620 colon, 60800 nM with T-47D breast and > 100000 nM in the test on UACC-257 melanoma.

Turning to `C#CC1(O)C(COP(=O)(O)OC2CC(n3cc(F)c(=O)[nH]c3=O)OC2CO)OC(n2ccc(N)nc2=O)C1O` (stereo not drawn), the GI50 in the test on BT-549 breast is < 15.7 nM; in the test on HCT-15 colon, < 10 nM; with HL-60(TB) leukemia it was < 18.1 nM; in the test on HS 578T breast it was 304 nM; with HT29 colon, < 13.9 nM; in the test with LOX IMVI melanoma it was < 10 nM. Besides, the GI50 in the test on SR leukemia is < 10 nM; with SW-620 colon it was < 10 nM; in the test with T-47D breast, < 15.7 nM; in the test on UACC-257 melanoma, 66.3 nM. For the same compound, the TGI is 909 nM in the test with BT-549 breast; > 38900 nM in the test on HCT-15 colon; > 35400 nM with HS 578T breast; > 100000 nM in the test on HT29 colon; 1870 nM in the test with LOX IMVI melanoma; 142 nM in the test with SR leukemia. For the same compound, the results for the TGI with SW-620 colon, in the test on T-47D breast and with UACC-257 melanoma were > 100000 nM, > 51700 nM and 2180 nM, respectively.

On to `O=C(c1ccc2ncc(-c3nc(NC4CC4)ncc3F)n2c1)N1CCOCC1`, for which the GI50 in the test on BT-549 breast was 1580 nM; in the test with HCT-15 colon, 2510 nM; in the test on HL-60(TB) leukemia it was 1970 nM; in the test with HS 578T breast, 2210 nM; with HT29 colon, 2220 nM; with LOX IMVI melanoma, 1110 nM. For the same compound, the GI50 in the test with SR leukemia was 513 nM; in the test on SW-620 colon it was 2910 nM; in the test with T-47D breast, 2000 nM; in the test on UACC-257 melanoma, 2710 nM. The concentration for total growth inhibition (TGI) in the test with BT-549 breast was 5290 nM; with HCT-15 colon it was > 100000 nM; in the test on HL-60(TB) leukemia, 5150 nM; with HS 578T breast, 8040 nM; with HT29 colon, 13100 nM; in the test with LOX IMVI melanoma it was 41400 nM. The TGI in the test with SR leukemia is 4150 nM; in the test with SW-620 colon, > 100000 nM; in the test on T-47D breast, 7490 nM; in the test with UACC-257 melanoma, 8430 nM.

With `Cc1sc(C)c(Cc2c(C)sc(C)c2CCl)c1CCl`, the GI50 in the test with BT-549 breast, in the test with HCT-15 colon, in the test on HL-60(TB) leukemia, in the test on HS 578T breast, in the test on HT29 colon and in the test on LOX IMVI melanoma was > 100000 nM each time. For the same compound, the GI50 in the test with SR leukemia, in the test with SW-620 colon, in the test with T-47D breast and in the test on UACC-257 melanoma was > 100000 nM in each case. Besides, the TGI with BT-549 breast, with HCT-15 colon, with HL-60(TB) leukemia, in the test with HS 578T breast, in the test with HT29 colon and in the test on LOX IMVI melanoma was > 100000 nM throughout. The TGI in the test with SR leukemia, with SW-620 colon, in the test with T-47D breast and in the test on UACC-257 melanoma was > 100000 nM in each case.

Consider `OCCSCc1ccccc1`, for which the TGI in the test on BT-549 breast, in the test with HCT-15 colon, in the test on HL-60(TB) leukemia, in the test with HS 578T breast, with HT29 colon and with LOX IMVI melanoma was > 100000 nM each time. For the same compound, the TGI in the test with SR leukemia, in the test on SW-620 colon, with T-47D breast and in the test with UACC-257 melanoma was > 100000 nM in each case.

Regarding `CC(C)c1ccc(C(=O)Nc2sc3c(c2C#N)CCC(=O)C3)cc1`, the GI50 with BT-549 breast is 306 nM; in the test with HCT-15 colon it was 310 nM; with HL-60(TB) leukemia it was 413 nM; in the test on HS 578T breast, 546 nM; with HT29 colon, 465 nM; with LOX IMVI melanoma, 390 nM. Besides, the GI50 in the test on SR leukemia is 424 nM; in the test with SW-620 colon it was 266 nM; in the test on T-47D breast, 263 nM; with UACC-257 melanoma, 1730 nM. Moreover, the TGI was 3130 nM with BT-549 breast; 1950 nM in the test on HCT-15 colon; > 100000 nM in the test with HS 578T breast; > 21900 nM in the test with HT29 colon; > 33400 nM in the test with LOX IMVI melanoma; > 100000 nM with SR leukemia. Also, the values for the TGI with SW-620 colon, in the test with T-47D breast and in the test on UACC-257 melanoma were 1670 nM, 1480 nM and 6050 nM, respectively.

For `CCN1C(=S)N(CC)C2C1NC(=S)N2/N=C/C=C/c1ccccc1` (stereo not drawn), the GI50 in the test with BT-549 breast is 5440 nM; in the test on HCT-15 colon, 770 nM; in the test on HL-60(TB) leukemia, 387 nM; in the test with HS 578T breast, 2110 nM; in the test with HT29 colon, 511 nM; with LOX IMVI melanoma it was 2810 nM. For the same compound, the GI50 with SR leukemia was 347 nM; in the test with SW-620 colon, 803 nM; with T-47D breast, 3550 nM; with UACC-257 melanoma, 3680 nM. The TGI in the test with BT-549 breast came to 21700 nM; in the test with HCT-15 colon, 14300 nM; in the test on HL-60(TB) leukemia, 1790 nM; with HS 578T breast it was 8960 nM; in the test on HT29 colon it was 12100 nM; with LOX IMVI melanoma it was 17000 nM. Further, the TGI with SR leukemia was determined as 5920 nM; with SW-620 colon, 17800 nM; with T-47D breast it was 18200 nM; in the test on UACC-257 melanoma, 19500 nM.

For the origin of these results see PubChem BioAssay (NCI).
